Experimental data: patent EP0790996B1, “PYRIDAZINOQUINOLINE COMPOUNDS” (AstraZeneca AB, priority 1994, dated 1996)
Where two headings read alike, the source gives them in different places.

Key:
[1] = system: NMDA-induced excitatory response of red nucleus cells; test: Red nucleus test (Test B); format: in vivo, Rats; conditions: Rattus norvegicus
Experimental: The purpose of this test is to determine the effects of intravenously administered glycine antagonists on the NMDA-induced excitatory response of red nucleus cells.
The procedure for the red nucleus test is as follows. Rats are anesthetized with chloral hydrate (400 mg/kg ip) and the femoral vein is catheterized for iv drug administration. Five-barrel micropipettes are stereotaxically positioned in the red nucleus. Typically, three to four of the five barrels are filled as follows: the recording barrel with 2M potassium citrate, the current balancing barrel with 4M NaCl, the drug barrel with 25mM NMDA, and another drug barrel with 2.5mM quisqualic acid (QA is only used in selectivity studies). NMDA is iontophoretically applied with an ejection current that is adjusted depending on the sensitivity of each individual red nucleus cell. The NMDA is cycled on and off (usually 30 - 60 sec. on and 60 - 120 sec. off) and the firing rate of the cell during each period is recorded. Once the baseline firing rate of the cell has been established, the test drug is administered iv. The effect of the drug on the NMDA-induced excitatory response of the red nucleus cell can be both qualitatively and quantitatively evaluated from the recordings and the raw data accumulated.

[2] = target: T1, glycine receptor of the NMDA receptor complex (Rattus norvegicus, UniProt P35439); test: [3H]-glycine binding assay (Test A); parameters: species or system Sprague-Dawley rats; conditions: 20 nanomolar [3H]-glycine, rat synaptic membranes, pH 7.1, 30 minutes at 4 °C
T1 construct: Freshly dissected cortices and hippocampi are homogenized in 0.32 M sucrose; from tissue; host or cells: rat cerebral cortex and hippocampus synaptic membranes
Experimental: In the [^3H]-glycine binding assay, neuronal synaptic membranes are prepared from adult (about 250 g) male Sprague-Dawley rats. Freshly dissected cortices and hippocampi are homogenized in 0.32 M sucrose (110 mg/mL). Synaptosomes are isolated by centrifugation (1000 xg, 10 min), the supernatant is pelleted (20,000 xg, 20 min) and resuspended in double-distilled water. The suspension was centrifuged for 20 minutes at 8,000 xg. The resulting […] and buffy coat are washed twice (48,000 xg, 10 mins, resuspension in double-deionized water). The final pellet is quickly frozen (dry ice/ethanol bath) under double-deionized water and stored at -70 °C.
On the day of the experiment, thawed synaptic membranes are homogenized with a Brinkmann Polytron (tm, Brinkmann Instruments, Westbury, N.Y.) tissue homogenizer in 50 millimolar tris(hydroxymethyl)aminomethane citrate, pH 7.1. The membranes are incubated with 0.04% Sufact-AMPS X100 (tm, Pierce, Rockford, IL) in buffer for 20 minutes at 37 °C and washed six times by centrifugation (48,000 xg, 10 min) and resuspended in buffer. The final pellet is homogenized at 200 mg wet weight/mL of the buffer for the binding assay.
For [^3H]-glycine binding at the N-methyl-D-aspartate receptor, 20 nanomolar [^3H]-glycine (40-60 Ci/mmol, New England Nuclear, Boston, MA) is incubated with the membranes suspended in 50 millimolar tris (hydroxymethyl)aminomethane citrate, pH 7.1 for 30 minutes at 4 °C. Glycine, 1 millimolar, is used to define the nonspecific binding. Bound [^3H]-glycine is isolated from free using a Brandel (Biomedical Research and Development Laboratories, Gaithersburg, MD) cell harvester for vacuum filtration over glass fiber filters (Whatman GF/B from Brandel, Gaithersburg, MD) presoaked in 0.025% polyethylenimine. The samples retained on the glass fiber filters are rinsed 3 times with a total of 2.5 mL ice cold buffer. Radioactivity is estimated by liquid scintillation counting. IC50 values are obtained from a least-squares regression of a logit-log transformation of the data. […]

Male SHR rats = test: Rat Middle Cerebral Artery test (Test C), permanent MCA occlusion; format: in vivo; conditions: 24 hours after MCA/common carotid artery occlusion
Experimental: Male SHR rats weighing 280-320 g are used for these studies. The method used for permanent middle cerebral artery (MCA) occlusion is as described by Brint et al (1988). […] Following occlusions, drugs are administered intravenously via jugular catheter. Twenty-four hours after MCA/common carotid artery occlusion, the animals are sacrificed and their brains quickly removed. Coronal sections of 1 mm thickness are cut using a vibratome and stained with 2,3,5, triphenyl, 2H-tetrazolium chloride (TTC) dye. Following staining, necrotic tissue is readily distinguished from the intact brain and the area of infarcted cortex can be traced on an image analyzer. The infarct volume for each section is quantified with an image analyzer, and the total infarct volume is calculated with a program that summed all interval volume. See S. Brint et al. J. Cerebral Blood Flow 8:474-485 (1988). The statistical analysis of the difference between the volume of ischemic damage in the vehicle control and drug-treated animals is analyzed by student's-t-test. […] For example, the compound of example 145 at an I.V. dose of 10 mgs/kg/hr caused an infarct % volume change of -42% while a 5.0 mg/kg/hr I.V. dosage caused a -8% reduction.

## NC1CCN(O)C1=O (racemic) [HA-966]
[1]; reference agents, intravenous, anesthetized rats, read-out: ID50 (the source's name)
  ED50: 7.9 mg/kg

## C/C(=C\C(N)C(=O)O)CP(=O)(O)O (centres unmarked) [CGP 37849]
[1]; iv, read-out: ID50
  ED50: 1.7 mg/kg

## O=c1c2c(c(O)nn1-c1ccccc1)Nc1cc(Cl)ccc1C2 [Example 147, 7-chloro-4-hydroxy-2-phenyl-5,10-dihydro-2H-pyridazino [4,5-b]quinolin-1-one]
[2]
  IC50: 17 nM

## Cc1ccc(-n2nc(O)c3c(c2=O)Cc2ccc(Cl)cc2N3)cc1 [Example 145, 7-Chloro-4-hydroxy-5,10-dihydro-2-(4'-methylphenyl)pyridazino[4,5-b]-quinoline-1-one]
[2]
  IC50: 45 nM
[1]; as the meglumine salt (N=5), administered iv, read-out: ID50 (the source's name)
  ED50: 6.54 mg/kg
Male SHR rats; 5.0 mg/kg/hr I.V. dosage
  infarct % volume change: -8%
Male SHR rats; I.V. dose of 10 mgs/kg/hr
  infarct % volume change: -42%

## COc1ccc(-n2nc(O)c3c(c2=O)Cc2ccc(Cl)cc2N3)cc1 [Example 148, 7-chloro-4-hydoxy-2-(4'-methoxyphenyl)-5,10-dihydro-2H-pyridazino[4,5-b]quinoline-1-one]
[2]
  IC50: 440 nM
